Measured values taken from patent publication US20030018071A1, “Method and compositions for treating fibrotic diseases” (priority 2002, published 2003).
Converted amounts (≈) assume the structure as drawn.

Key:
[1] = developed as an antidepressant; cited from earlier work
[2] = system: human fetal lung fibroblasts; experiment: Fibroblast chemotaxis toward fibronectin (Boyden blindwell chamber); format: cell-based
Description: Since the activity of a PDE4 inhibitor should be dependent on endogenous cyclic AMP levels, a study was designed to determine if endogenous prostaglandin production rendered cells susceptible to the effects of Ariflo. To accomplish this, human fetal lung fibroblasts were cultured and, after achieving confluence, were incubated for 60 minutes with and without indomethacin (2×10^−6 M) to inhibit cyclooxygenase. Fibroblasts were then trypsinized and placed in the upper portion of a Boyden blindwell chemotaxis chamber. Fibronectin, 20 μg/ml, was placed in the lower portion of the chamber as the chemoattractant. Indomethacin (2×10^−6 M) was added to the upper side of the chemotaxis chamber. […] In three separate experiments, the concentration of Ariflo required to inhibit chemotaxis by 50% was 4.9±2.5 μg/ml. In the presence of indomethacin, Ariflo inhibited chemotaxis only at the highest concentration tested 10 μg/ml reducing the response to 58.7±21.0% of control (p<005) compared to indomethacin. […] Since cyclooxygenase activity and prostaglandin production can be modulated by a variety of mediators present in an inflammatory milieu, fibroblasts in such a setting may be particularly sensitive to the inhibitory effects of Ariflo. Such an effect has therapeutic value in fibrotic disorders.

COc1ccc(C2CNC(=O)C2)cc1OC1CCCC1 (centres unmarked) [rolipram]
side effects in clinical studies [1]: has psychotropic activity and produces gastrointestinal effects, e.g., pyrosis, nausea and emesis

COc1ccc([C@]2(C#N)CC[C@@H](C(=O)O)CC2)cc1OC1CCCC1 [Ariflo, cis 4-cyano-4-(3-cyclopentyloxy-4-methoxyphenyl)cyclohexan-1-carboxylic acid]
activity at 10 µg/mL ([2]; Homo sapiens, Fibroblast, Ariflo 10 μg/ml in the presence of indomethacin 2×10^−6 M, compared to indomethacin, read-out: chemotaxis response, % of control): 58.7 ± 21%
IC50 ([2]; Homo sapiens, Fibroblast, control fibroblasts (no indomethacin), fibronectin 20 μg/ml as chemoattractant, three separate experiments, read-out: concentration required to inhibit chemotaxis by 50%): 4.9 ± 2.5 µg/mL (≈ 14.3 µM)
effect on chemotaxis (in words) ([2]; added to control fibroblasts): inhibited chemotaxis in a concentration dependent manner

COc1ccc2c(c1)c(CC(=O)O)c(C)n2C(=O)c1ccc(Cl)cc1 [Indomethacin, indomethacin, reference compound]
chemotaxis, % compared to control ([2]; indomethacin alone 2×10^−6 M, fibronectin 20 μg/ml): 159±33%
